Laboratory results taken from US6737383B1, “Herbicidal oxadiazolidines” (priority 1999, dated 2004).

Legend:
blackgrass = test: Test B pre/postemergence blackgrass; assay type: in vivo, Alopecurus myosuroides
How it was run: (§1)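 Herbicidal effect was estimated by eye on a ten-point control scale after plants spent twelve to sixteen days in a greenhouse following soil or foliar treatment. Foliar sprays targeted plants at one to four leaves; all doses were formulated in a non-phytotoxic solvent with surfactant.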

surinam grass = test: Test B pre/postemergence surinam grass; assay type: in vivo, Brachiaria decumbens
How it was run: as §1

sugar beet = test: Test B pre/postemergence sugar beet; assay type: in vivo, Beta vulgaris
How it was run: as §1

giant foxtail = test: Test B pre/postemergence giant foxtail; assay type: in vivo, Setaria faberii
How it was run: as §1

rape = test: Test B pre/postemergence rape; assay type: in vivo, Brassica napus
How it was run: as §1

wild oat = test: Test B pre/postemergence wild oat; assay type: in vivo, Avena fatua
How it was run: as §1

morningglory = test: Test B pre/postemergence morningglory; assay type: in vivo, Ipomoea hederacea
How it was run: as §1

pigweed = test: Test B pre/postemergence pigweed; assay type: in vivo, Amaranthus retroflexus
How it was run: as §1

duck salad = test: Test B flood test duck salad; assay type: in vivo, Heteranthera limosa
How it was run: (§2)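 Each value is a visual injury score relative to controls, with 10 meaning complete control and 0 no effect. Evaluation took place twelve to sixteen days after the 2-leaf-stage plants were treated and kept in the greenhouse.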

purple nutsedge = test: Test B pre/postemergence purple nutsedge; assay type: in vivo, Cyperus rotundus
How it was run: as §1

smallflower flatsedge = test: Test B flood test smallflower flatsedge; assay type: in vivo, Cyperus difformis
How it was run: as §2

bamyardgrass = test: Test B flood test barnyardgrass; assay type: in vivo, Echinochloa crus-galli
How it was run: as §2

wheat = test: Test B pre/postemergence wheat; assay type: in vivo, Triticum aestivum
How it was run: as §1

soybean = test: Test B pre/postemergence soybean; assay type: in vivo, Glycine max
How it was run: as §1

cocklebur = test: Test B pre/postemergence cocklebur; assay type: in vivo, Xanthium strumarium
How it was run: as §1

bedstraw = test: Test B pre/postemergence bedstraw; assay type: in vivo, Galium aparine
How it was run: as §1

[1] = Preemergence, Rate 62 g/ha, scale of 0 to 10 where 0 is no effect and 10 is complete control
[2] = Preemergence, Rate 250 g/ha, scale of 0 to 10 where 0 is no effect and 10 is complete control
[3] = Preemergence, Rate 500 g/ha, scale of 0 to 10 where 0 is no effect and 10 is complete control
[4] = Rate 62 g/ha, Postemergence, scale 0 to 10 (0 no effect, 10 complete control)
[5] = Rate 125 g/ha, Postemergence, scale of 0 to 10 where 0 is no effect and 10 is complete control
[6] = Rate 250 g/ha, Postemergence, scale of 0 to 10 where 0 is no effect and 10 is complete control
[7] = Rate 500 g/ha, Postemergence, scale 0 to 10, 0 no effect, 10 complete control
[8] = Rate 62 g/ha, headed Pre-emergence (flood test species), scale 0 to 10 (0 no effect, 10 complete control)
[9] = Rate 125 g/ha, Pre-emergence, flood test species, scale 0 to 10 where 0 is no effect and 10 is complete control
[10] = Rate 250 g/ha, Pre-emergence, flood-test species, scale 0 to 10, 0 is no effect, 10 is complete control
[11] = Rate 500 g/ha, Pre-emergence, flood test species, scale 0 to 10 (0 no effect, 10 complete control)

Structure (SMILES): CC(C)n1c(=O)on(C(=O)N(c2ccc(Cl)cc2Cl)C2CCC2)c1=O [Compound 319]
- Blackgrass plant response rating (blackgrass; [1]): 0
- Blackgrass plant response rating (0 to 10 scale) (blackgrass; Preemergence, Rate 125 g/ha): 0
- Blackgrass plant response rating (blackgrass; [2]): 2
- Blackgrass plant response rating (blackgrass; [3]): 4
- Blackgrass plant response rating (blackgrass; [4]): 0
- Blackgrass plant response rating (blackgrass; [5]): 0
- Plant response rating, Blackgrass (blackgrass; [6]): 0
- Blackgrass plant response rating (blackgrass; [7]): 3
- B. signalgrass plant response rating (surinam grass; [1]): 0
- B. signalgrass plant response rating (0 to 10 scale, 0 is no effect, 10 is complete control) (surinam grass; Preemergence, Rate 125 g/ha): 0
- B. signalgrass plant response rating (surinam grass; [2]): 2
- B. signalgrass plant response rating (surinam grass; [3]): 3
- B. signalgrass plant response rating (surinam grass; [4]): 0
- B. signalgrass plant response rating (surinam grass; [5]): 0
- Plant response rating, B. signalgrass (surinam grass; [6]): 0
- B. signalgrass plant response rating (surinam grass; [7]): 0
- Sugarbeets plant response rating (sugar beet; [1]): 0
- Sugarbeets plant response rating (0 to 10 scale) (sugar beet; Preemergence, Rate 125 g/ha): 0
- Sugarbeets plant response rating (sugar beet; [2]): 0
- Sugarbeets plant response rating (sugar beet; [3]): 0
- Sugarbeets plant response rating (sugar beet; [4]): 0
- Sugarbeets plant response rating (sugar beet; [5]): 0
- Plant response rating, Sugarbeets (sugar beet; [6]): 0
- Giant foxtail plant response rating (giant foxtail; [1]): 6
- Giant foxtail plant response rating (0 to 10 scale) (giant foxtail; Preemergence, Rate 125 g/ha): 7
- Giant foxtail plant response rating (giant foxtail; [2]): 9
- Giant foxtail plant response rating (giant foxtail; [3]): 9
- Giant foxtail plant response rating (giant foxtail; [4]): 0
- Giant foxtail plant response rating (giant foxtail; [5]): 0
- Plant response rating, Giant foxtail (giant foxtail; [6]): 0
- Rape plant response rating (rape; [1]): 0
- Rape plant response rating (0 to 10 scale) (rape; Preemergence, Rate 125 g/ha): 0
- Rape plant response rating (rape; [2]): 0
- Rape plant response rating (rape; [3]): 0
- Rape plant response rating (rape; [4]): 0
- Rape plant response rating (rape; [5]): 0
- Plant response rating, Rape (rape; [6]): 0
- Wild oats plant response rating (wild oat; [1]): 0
- Wild oats plant response rating (0 to 10 scale) (wild oat; Preemergence, Rate 125 g/ha): 0
- Wild oats plant response rating (wild oat; [2]): 0
- Wild oats plant response rating (wild oat; [3]): 0
- Wild oats plant response rating (wild oat; [4]): 0
- Wild oats plant response rating (wild oat; [5]): 0
- Plant response rating, Wild oats (wild oat; [6]): 0
- Morningglory plant response rating (morningglory; [1]): 0
- Morningglory plant response rating (0 to 10 scale) (morningglory; Preemergence, Rate 125 g/ha): 0
- Morningglory plant response rating (morningglory; [2]): 0
- Morningglory plant response rating (morningglory; [3]): 0
- Morningglory plant response rating (morningglory; [4]): 2
- Morningglory plant response rating (morningglory; [5]): 2
- Plant response rating, Morningglory (morningglory; [6]): 4
- Redroot pigweed plant response rating (pigweed; [1]): 0
- Redroot pigweed plant response rating (0 to 10 scale) (pigweed; Preemergence, Rate 125 g/ha): 0
- Redroot pigweed plant response rating (pigweed; [2]): 0
- Redroot pigweed plant response rating (pigweed; [3]): 0
- Redroot pigweed plant response rating (pigweed; [4]): 0
- Redroot pigweed plant response rating (pigweed; [5]): 0
- Plant response rating, Redroot pigweed (pigweed; [6]): 0
- Ducksalad plant response rating (duck salad; [8]): 0
- Ducksalad plant response rating (duck salad; [9]): 0
- Ducksalad plant response rating (duck salad; [10]): 0
- Ducksalad plant response rating (duck salad; [11]): 0
- Nutsedge plant response rating (purple nutsedge; [1]): 0
- Nutsedge plant response rating (0 to 10 scale) (purple nutsedge; Preemergence, Rate 125 g/ha): 0
- Nutsedge plant response rating (purple nutsedge; [2]): 0
- Nutsedge plant response rating (purple nutsedge; [3]): 0
- Nutsedge plant response rating (purple nutsedge; [4]): 0
- Nutsedge plant response rating (purple nutsedge; [5]): 0
- Plant response rating, Nutsedge (purple nutsedge; [6]): 0
- S. Flatsedge plant response rating (smallflower flatsedge; [8]): 0
- S. Flatsedge plant response rating (smallflower flatsedge; [9]): 0
- S. Flatsedge plant response rating (smallflower flatsedge; [10]): 0
- S. Flatsedge plant response rating (smallflower flatsedge; [11]): 0
- Barnyardgrass plant response rating (bamyardgrass; [8]): 0
- Barnyardgrass plant response rating (bamyardgrass; [9]): 0
- Barnyardgrass plant response rating (bamyardgrass; [10]): 0
- Barnyardgrass plant response rating (bamyardgrass; [11]): 2
- Wheat plant response rating (wheat; [1]): 0
- Wheat plant response rating (0 to 10 scale) (wheat; Preemergence, Rate 125 g/ha): 0
- Wheat plant response rating (wheat; [2]): 0
- Wheat plant response rating (wheat; [3]): 0
- Wheat plant response rating (wheat; [4]): 0
- Wheat plant response rating (wheat; [5]): 0
- Plant response rating, Wheat (wheat; [6]): 0
- Soybean plant response rating (soybean; [1]): 0
- Soybean plant response rating (0 to 10 scale) (soybean; Preemergence, Rate 125 g/ha): 0
- Soybean plant response rating (soybean; [2]): 0
- Soybean plant response rating (soybean; [3]): 0
- Soybean plant response rating (soybean; [4]): 0
- Soybean plant response rating (soybean; [5]): 1
- Plant response rating, Soybean (soybean; [6]): 1
- Cocklebur plant response rating (cocklebur; [1]): 0
- Cocklebur plant response rating (0 to 10 scale) (cocklebur; Preemergence, Rate 125 g/ha): 0
- Cocklebur plant response rating (cocklebur; [2]): 0
- Cocklebur plant response rating (cocklebur; [3]): 0
- Cocklebur plant response rating (cocklebur; [4]): 0
- Cocklebur plant response rating (cocklebur; [5]): 0
- Plant response rating, Cocklebur (cocklebur; [6]): 0
- Cocklebur plant response rating (cocklebur; [7]): 0
- Bedstraw plant response rating (bedstraw; [1]): 0
- Bedstraw plant response rating (0 to 10 scale) (bedstraw; Preemergence, Rate 125 g/ha): 0
- Bedstraw plant response rating (bedstraw; [2]): 0
- Bedstraw plant response rating (bedstraw; [3]): 7
- Bedstraw plant response rating (bedstraw; [4]): 0
- Bedstraw plant response rating (bedstraw; [5]): 0
